# Legend:
# naïve CD4+ T cells = assay: Naive CD4+ T cells under Treg cell generating conditions; format: cell-based; conditions: for proliferation: Treg cell generating conditions, 5 days, FIG. 39; for number of Foxp3+ Treg cells: rIL-2, with or even without rTGF-β1, 5 days, FIG. 38
# Naive CD4+ T cells = Naive CD4+ T cells under Th17 cell polarizing conditions; format: cell-based; conditions: for number of CD4+ IL-10-secreting T cells: among Th17 differentiating cells, 4 days, FIG. 37; for number of CD4+ IL-17-secreting T cells: and rIL-6, 4 days, vs RPMI, FIG. 36
# [1] = test system: Lymph node (LN) cells from unprimed DO11.10 TCR Tg mice; assay: OVA-stimulated lymph node cell culture, T cell proliferation; format: cell-based; conditions: for proliferation of the T cells that respond to the antigen: LN cells stimulated with OVA, vs control RPMI, FIG. 1; for effect on T cell responses in general: overall conclusion of Example 1 (FIGS. 1-4)
# [2] = mitogen-induced proliferation, delayed-type hypersensitivity, mixed lymphocyte reaction; cited from earlier work
# [3] = test system: collagen-induced arthritis (CIA); conditions: cited from earlier work
# [4] = mice; cited from earlier work
# [5] = test system: ongoing EAE in recipient mice; assay: Adoptive transfer of DLN cells from treated EAE donors into recipients with ongoing EAE; format: in vivo
# Source text: The donor DLN cells were obtained on day 17, which is the peak of disease for control mice. This protection was observed until day 28-30 when the mice were euthanized.
# [6] = test system: ongoing EAE in recipient mice; assay: Adoptive transfer of CD4+ T cells from treated EAE donors into recipients with ongoing EAE; format: in vivo
# [7] = test system: EAE in C57BL/6 Rag−/− recipients; assay: Adoptive transfer of CD4+ T cells from treated EAE donors into C57BL/6 Rag-/- recipients; format: in vivo, C57BL/6 Rag−/− mice
# EAE = EAE after cessation of 15 days of treatment, 45 additional days of monitoring; format: in vivo, C57BL/6 mice
# Source text: The mice continued to be monitored daily for clinical signs of EAE for 45 additional days thereafter.
# [8] = test system: response to OVA in EAE-induced mice; assay: EAE mice treated for 15 days, then immunized with OVA/CFA; format: in vivo, C57BL/6 mice
# Description: Treatment stopped and mice were then injected with OVA/CFA (Complete Freund's Adjuvant).
# Instead, the response to a new antigen that the mice are exposed to is enhanced.
# [9] = oral, 50 mg/kg, beginning at onset of disease
smiles,measurement,setting,value
"C[C@]12CC[C@H](O)CC1=CCC1C2CC[C@@]2(C)C1CC[C@]21O[C@H]1CO (stereo partly drawn) [BNN-124, (20S)-3β,21-dihydroxy-17β,20-epoxy-5-pregnene]",proliferation,naïve CD4+ T cells,increased
same,number of Foxp3+ Treg cells,naïve CD4+ T cells,significant increase
same,number of CD4+ IL-10-secreting T cells,Naive CD4+ T cells,significant increase
same,number of CD4+ IL-17-secreting T cells,Naive CD4+ T cells,increase
same,proliferation of the T cells that respond to the antigen,[1],significantly decreased
same,effect on T cell responses in general,[1],immunosuppressive effect
"C[C@]12CC[C@H](O)CC1=CC[C@@H]1[C@@H]2CC[C@@]2(C)[C@H]1CC[C@@]21CO1 [BNN-50, 17β-spiro-[5-androsten-17,2′-oxiran]-3β-ol]",proliferation,naïve CD4+ T cells,increased
same,number of Foxp3+ Treg cells,naïve CD4+ T cells,significant increase
same,number of CD4+ IL-10-secreting T cells,Naive CD4+ T cells,significant increase
same,number of CD4+ IL-17-secreting T cells,Naive CD4+ T cells,increase
same,proliferation of the T cells that respond to the antigen,[1],significantly decreased
same,effect on T cell responses in general,[1],immunosuppressive effect
C#C[C@]1(O)CC[C@H]2[C@@H]3[C@@H](O)C=C4C[C@@H](O)CC[C@]4(C)[C@H]3CC[C@@]21C [HE3286],immune suppression in classical models,[2],not found to be immune suppressive
same,numbers and function of CD4+CD25+FOXp3+CD127-regulatory T cells (T reg),[3]; associated with benefit,increases
same,CIA peak scores,[3]; [9],significantly decreased
same,daily severity of arthritis scores,[3]; [9],significantly decreased
same,oral bioavailability,[4],up to 25%
"C[C@]12CC[C@H](O)CC1=CC[C@@H]1[C@@H]2CC[C@@]2(C)[C@H]1CC[C@@]21OC1CO (stereo partly drawn) [BNN-93, 3β,21-dihydroxy-17α,20-epoxy-5-pregnene]",proliferation,naïve CD4+ T cells,increased
same,number of Foxp3+ Treg cells,naïve CD4+ T cells,significant increase
same,recovery of recipients,"[5]; DLN cell transfer, vs PBS-treated donors, FIG. 24",rapid recovery
same,mean maximum disease score,"[5]; DLN cell transfer, vs PBS-treated donors, FIG. 25",significant reduction
same,EAE development in recipients,"[5]; DLN cells of donors treated days 12-17, vs DLN cells from PBS-treated donors, FIG. 24",confer suppression
same,ex vivo proliferation to MOG35-55,"[5]; DLN cells of recipients, FIG. 26a",significantly decreased
same,levels of supernatant IFN-γ,"[5]; DLN cells of recipients, FIG. 26b",decreased levels
same,levels of supernatant IL-17,"[5]; DLN cells of recipients, FIG. 26c",decreased levels
same,recruitment of CD11c+ dendritic cells,"[5]; draining lymph nodes of recipients, FIG. 27a",substantially decreased
same,recruitment of IL-17 secreting T cells,"[5]; draining lymph nodes of recipients, FIG. 27b",substantially decreased
same,recruitment of CD4+ Foxp3+ regulatory T cells,"[5]; draining lymph nodes of recipients, FIG. 27c",increased
same,mean maximum EAE score,"[6]; CD4+ T cell transfer into recipients with ongoing EAE, FIGS. 28 and 29",significant decrease
same,proliferation to MOG35-55 ex vivo,"[6]; DLN cells and splenocytes of recipients, FIG. 30",significantly decreased
same,number of CD4+ IL-10-secreting T cells,Naive CD4+ T cells,significant increase
same,number of CD4+ IL-17-secreting T cells,Naive CD4+ T cells,increase
same,ex vivo proliferation to MOG35-55,"[7]; DLN cells of Rag−/− recipients, FIG. 33a",substantially decreased
same,production of IFN-γ,"[7]; DLN cells of Rag−/− recipients, FIG. 33b",decreased production
same,production of IL-17,"[7]; DLN cells of Rag−/− recipients, FIG. 33c",decreased production
same,EAE scores induced in recipients,"[7]; after pertussis toxin injections, FIGS. 31 and 32",no disease
same,protection from EAE development after cessation of treatment,"EAE; treated 15 days from around day 13, monitored 45 additional days, FIGS. 34 and 35",remained protected
same,disease score after cessation of treatment,"EAE; treated 15 days, monitored 45 additional days, vs control mice",remained unchanged
same,proliferation of the T cells that respond to the antigen,[1],significantly decreased
same,effect on T cell responses in general,[1],immunosuppressive effect
same,production of IFN-γ,[8]; after OVA/CFA immunization,increased
same,T cell response to OVA ex vivo (3H-Thymidine incorporation),"[8]; after OVA/CFA immunization, FIG. 40",substantially increased
same,EAE phenotype after end of treatment and OVA/CFA injection,[8]; in comparison to control mice,stable phenotype without any deterioration
same,protection from EAE,"[8]; treated 15 days from shortly after disease onset, then OVA/CFA",clearly protected

# Source: patent publication US20120225852A1, “USE OF STEROID COMPOUNDS” (priority 2009, published 2012)
